For assay [1], the system named is Nicotiana tabacum. Briefly: Induction of systemic acquired resistance against Oidium in Nicotiana tabacum cv. Xanthi nc (tobacco) assessed as decrease in lesion size applied as soil-drench 5 days prior to infection measured after 5 days. In kind it is functional, organism-based.
The subject of assay [2] is Nicotiana tabacum. Briefly: Induction of N-gene mediated systemic acquired resistance against TMV in Nicotiana tabacum cv. Xanthi nc (tobacco) assessed as decrease in lesion size at 0.1 mg/pot applied by soil-drench 5 days prior to infection measured after 5 days relative to control. Format: functional, organism-based.
Assay [3] relates to Pseudomonas amygdali pv. tabaci. As to the kind of experiment: Antibacterial activity against Pseudomonas syringae pv. tabaci up to 500 ug/ml. In kind it is functional, organism-based.
In assay [4] the test system is Nicotiana tabacum. Briefly: Induction of systemic acquired resistance against Pseudomonas syringae pv. tabaci in Nicotiana tabacum cv. Xanthi nc (tobacco) assessed as decrease in Nicotiana tabacum (tobacco) wildfire disease symptoms at 1 to 2 mg/pot applied as soil-drench 5 days prior to infection measured after 3 days relative to control. In kind it is functional, organism-based.

In assay [5] the test system is Nicotiana tabacum. As to the kind of experiment: Induction of N-gene mediated systemic acquired resistance against TMV in Nicotiana tabacum cv. Xanthi nc (tobacco) assessed as lesion size at 0.1 mg/pot applied by soil-drench 5 days prior to infection measured after 5 days relative to control. In kind it is functional.
Assay [6] has as its system Nicotiana tabacum. Briefly: Induction of systemic acquired resistance against Pseudomonas syringae pv. tabaci in Nicotiana tabacum cv. Xanthi nc (tobacco) assessed as inhibition of bacterial growth in infected tissues at 1 to 2 mg/pot applied as soil-drench 5 days prior to infection measured after 3 days relative to control. In kind it is functional, organism-based.
Assay [7] has as its system Nicotiana tabacum. Briefly: Induction of N-gene mediated systemic acquired resistance against TMV in Nicotiana tabacum cv. Xanthi nc (tobacco) assessed as lesion size at 10 mg/pot applied by soil-drench 5 days prior to infection measured after 5 days relative to control. In kind it is functional.
The subject of assay [8] is Nicotiana tabacum. Briefly: Induction of N-gene mediated systemic acquired resistance against TMV in Nicotiana tabacum cv. Xanthi nc (tobacco) assessed as lesion size at 1 mg/pot applied by soil-drench 5 days prior to infection measured after 5 days relative to control. Format: functional.
Assay [9] has as its system Nicotiana tabacum. As to the kind of experiment: Induction of systemic acquired resistance in Nicotiana tabacum cv. Xanthi nc (tobacco) assessed as effect on total salicylic acid level in leaves at 1 mg/pot applied as soil-drench measured up to 7 days by fluorometric analysis relative to control. Format: functional, organism-based.
The test system of assay [10] is Nicotiana tabacum. As to the kind of experiment: Induction of systemic acquired resistance in Nicotiana tabacum cv. Xanthi nc (tobacco) assessed as effect on free salicylic acid level in leaves at 1 mg/pot applied as soil-drench measured up to 7 days by fluorometric analysis relative to control. Format: functional, organism-based.
The test system of assay [11] is Nicotiana tabacum. As to the kind of experiment: Induction of systemic acquired resistance in transgenic Nicotiana tabacum cv. Xanthi nc (tobacco) expressing bacterial NahG assessed as increase in PR1 mRNA level at 0.01 to 0.5 mg/ml applied as foliar spray measured after 4 days by Northern blot analysis relative to control. Format: functional, organism-based.
In assay [12] the test system is Nicotiana tabacum. Briefly: Induction of systemic acquired resistance in transgenic Nicotiana tabacum cv. Xanthi nc (tobacco) expressing bacterial NahG assessed as increase in PR1 mRNA level at 1 to 2 mg/pot applied as soil-drench measured after 4 days by Northern blot analysis relative to control. Format: functional, organism-based.
Assay [13] deals with Nicotiana tabacum. As to the kind of experiment: Induction of systemic acquired resistance against Pseudomonas syringae pv. tabaci in transgenic Nicotiana tabacum cv. Xanthi nc (tobacco) expressing bacterial NahG assessed as inhibition of bacterial growth in infected tissues at 1 to 2 mg/pot applied as soil-drench 5 days prior to infection measured after 3 days relative to control. Format: functional, organism-based.

The test system of assay [14] is Nicotiana tabacum. Briefly: Induction of N-gene mediated systemic acquired resistance against TMV in transgenic Nicotiana tabacum cv. Xanthi nc (tobacco) expressing bacterial NahG assessed as decrease in lesion size at 0.1 to 2 mg/pot applied by soil-drench 5 days prior to infection measured after 5 days relative to control. Format: functional, organism-based.
Assay [15] has as its system Nicotiana tabacum. Briefly: Induction of systemic acquired resistance in Nicotiana tabacum cv. Xanthi nc (tobacco) assessed as increase in PR5 mRNA level at 0.01 to 0.5 mg/ml applied as foliar spray measured after 4 days by Northern blot analysis relative to control. In kind it is functional, organism-based.
For assay [16], the system named is Nicotiana tabacum. Briefly: Induction of systemic acquired resistance in Nicotiana tabacum cv. Xanthi nc (tobacco) assessed as increase in PR2 mRNA level at 0.01 to 0.5 mg/ml applied as foliar spray measured after 4 days by Northern blot analysis relative to control. In kind it is functional, organism-based.
Assay [17] relates to Nicotiana tabacum. Briefly: Induction of systemic acquired resistance in Nicotiana tabacum cv. Xanthi nc (tobacco) assessed as increase in PR1 mRNA level at 0.01 to 0.5 mg/ml applied as foliar spray measured after 4 days by Northern blot analysis relative to control. Format: functional, organism-based.
The test system of assay [18] is Nicotiana tabacum. As to the kind of experiment: Induction of systemic acquired resistance in Nicotiana tabacum cv. Xanthi nc (tobacco) assessed as increase in PR1 mRNA level at 1 mg/pot applied as soil-drench measured after 24 hr by Northern blot analysis relative to control. In kind it is functional, organism-based.
Assay [19] has as its system Nicotiana tabacum. As to the kind of experiment: Induction of systemic acquired resistance in Nicotiana tabacum cv. Xanthi nc (tobacco) assessed as increase in PR5 mRNA level at 1 to 2 mg/pot applied as soil-drench measured after 4 days by Northern blot analysis relative to control. Format: functional, organism-based.
In assay [20] the test system is Nicotiana tabacum. As to the kind of experiment: Induction of systemic acquired resistance in Nicotiana tabacum cv. Xanthi nc (tobacco) assessed as increase in PR2 mRNA level at 1 to 2 mg/pot applied as soil-drench measured after 4 days by Northern blot analysis relative to control. In kind it is functional, organism-based.
Assay [21] concerns Nicotiana tabacum. Briefly: Induction of systemic acquired resistance in Nicotiana tabacum cv. Xanthi nc (tobacco) assessed as increase in PR1 mRNA level at 1 to 2 mg/pot applied as soil-drench measured after 4 days by Northern blot analysis relative to control. In kind it is functional, organism-based.

Activity calls are given as the source filed them. No cut-off for these calls is given here.

Regarding `CSC(=O)c1cccc2nnsc12`, the Activity entry with Nicotiana tabacum [1] was “Dose-dependent effect”. Further, the result in the assay on Nicotiana tabacum [2] was Active.
As for `Cn1nc(Cl)cc1C(=O)O` [3-CHLORO-1-METHYL-1H-PYRAZOLE-5-CARBOXYLIC ACID], the Activity entry in the assay with Nicotiana tabacum [1] was “Dose-dependent effect”; with Nicotiana tabacum [5], 50%; in the assay on Nicotiana tabacum [7], under 10%; in the assay with Nicotiana tabacum [8], under 10%. Further, the result (in [3]; with Nicotiana tabacum [9]; with Nicotiana tabacum [10]) was inactive. Besides, the result with Nicotiana tabacum [4], with Nicotiana tabacum [6], in the assay on Nicotiana tabacum [11], in the assay on Nicotiana tabacum [12], in the assay with Nicotiana tabacum [13] and with Nicotiana tabacum [14] was Active. Moreover, the result in the assay on Nicotiana tabacum [15], in the assay on Nicotiana tabacum [16], in the assay with Nicotiana tabacum [17], in the assay with Nicotiana tabacum [18], in the assay on Nicotiana tabacum [19] and in the assay with Nicotiana tabacum [20] was Active. Moreover, the outcome in the assay on Nicotiana tabacum [21] was Active.

Values taken from ChEMBL document CHEMBL3044732, “Pyrazolecarboxylic acid derivative induces systemic acquired resistance in tobacco” (2003).
